PubChem BioAssay AID1845204 (Molecular Pharmacology Branch, DTP, NCI, 2023)
pIC50: −log10 of the molar value. Activity calls are given as the source filed them. Rule for the calls: active = viability on the fitted dose curve at most 10% of control; inactive = the rest.

Test system: HSSY-II tumor spheroid viability
Test: Anticancer human tumor HSSY-II cell line growth inhibition;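 for pIC50: spheroids exposed to compounds for seven days before reading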;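 for viability, T/C: spheroids exposed to compounds for seven days before reading; percent of DMSO vehicle control viability so 100% = untreated level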
Conditions: spheroids with HUVEC and MSC; for pIC50: curve of first compound; for viability, T/C: stronger effect = lower value
Source text: Multicellular complex tumor spheroid response to DNA repair inhibitors in combination with DNA-damaging drugs
This study explores the anticancer activities of DNA-damaging drugs and inhibitors of DNA damage repair, both as single agents and in combinations. Complex tumor spheroids comprised of malignant cells, endothelial cells and mesenchymal stem cells served as an in vitro model for human solid tumors. This model system incorporates physiologically relevant features and patient-derived or established malignant cell lines with clinically relevant genetic alterations from many tumor types. Twenty-six patient-derived or established malignant cell lines were evaluated representing sarcoma, melanoma, small cell lung cancer (SCLC), non-small cell lung cancer (NSCLC), as well as bladder, ovarian and pancreatic cancers. The concentration ranges selected for each drug and investigational agent were based upon clinically achievable concentrations if the clinical Cmax of the agent was known.
Compounds. The drugs and compounds olaparib (NSC753686), talazoparib (NSC767125), berzosertib (NSC777718), elimusertib (NSC800525), nedisertib (NSC802822), VX-984 (NSC792969), AZD-1390 (NSC803789), temozolomide (NSC362856), topotecan (NSC609699), trabectedin (NSC813783), staurosporine (NSC755774), and gemcitabine (NSC613327) were obtained from the National Cancer Institute (NCI) Developmental Therapeutics Program Chemical Repository. The FDA-approved anticancer drug set is available from the Developmental Therapeutics Program at https://dtp.cancer.gov/organization/dscb/obtaining/available_plates.htm. […] The stock solutions were prepared in dimethyl sulfoxide (DMSO, Sigma-Aldrich, St. Louis, MO, cat. D2650) at 400-fold the tested concentration and stored at -70 degrees C. Prior to their use, the stock solutions were diluted in fresh medium and the final DMSO concentration in the assay was 0.25% (v/v). All drugs and investigational agents were tested over a range starting from a high concentration at or near the clinical Cmax and decreasing in half-log increments. If the clinical Cmax for an agent had not been determined, the highest concentration tested was 10 microM.
Cell Lines. The patient-derived cancer cell (PDC) lines: 156681-154-R-J1-PDC, 283228-195-R-J1-PDC, 287954-098-R-J1-PDC, 292921-168-R-J2-PDC, 349418-098-R-PDC, 425362-245-T-J1-PDC, 556581-035-R-J1-PDC, and BL0293-F563-PDC were received from the NCI Patient-Derived Models Repository (PDMR, https://pdmr.cancer.gov). The established cell lines HS-SY-2 (RRID:CVCL_8719), MPNST, and SYO-1 (RRID:CVCL_7146) were obtained from the Sloan Kettering Institute. The alveolar soft parts sarcoma cell line ASPS-1 (RRID:CVCL_S738) was established at the NCI and grown from internal seed stocks. The following established cell lines were purchased from the American Type Culture Collection (ATCC, Manassas, VA): G-401 (ATCC, cat. CRL-1441, RRID:CVCL_0270), SW982 (ATCC, cat. HTB-93, RRID:CVCL_1734), VA-ES-BJ (ATCC, cat. CRL-2138, RRID:CVCL_1785), NCI-H719 (ATCC, cat. CRL-5837, RRID:CVCL_1582), NCI-H196 (ATCC, cat. CRL-5823, RRID:CVCL_1509), NCI-H841 (ATCC, cat. CRL-5845, RRID:CVCL_1595), NCI-H1618 (ATCC, cat. CRL-5879, RRID:CVCL_1480), NCI-H1876 (ATCC, cat. CRL-5902, RRID:CVCL_1503), DMS 114 (ATCC, cat. CRL-2066; RRID:CVCL_1174), NCI-H211 (ATCC, cat. CRL-5824; RRID:CVCL_1529), and SW 1271 (ATCC, cat. CRL-2177, RRID:CVCL_1716). The small cell lung cancer cell line COR-L88 was purchased from Sigma-Aldrich (cat. 92031917-1VL, RRID:CVCL_1141). The non-small cell lung cancer cell lines NCI-H226 (RRID:CVCL_1544) and NCI-H322M (RRID:CVCL_1557) were established at the NCI and grown from internal seed stocks. Pooled donor human umbilical vein endothelial cells (HUVEC, Lonza, cat. CC-2519) and human mesenchymal stem cells (hMSC, Lonza, cat. PT-2501) were purchased from Lonza (Walkersville, MD).
Cell Culture. All cells were maintained in an incubator at 37 degrees C and 5% CO2 with 95% humidity. […]

Compound: Cc1sc2c(c1C)C(c1ccc(Cl)cc1)=NC(CC(=O)Nc1ccc(O)cc1)c1nnc(C)n1-2 (stereo not given) + COc1cc2c(cc1O)CCNC21CSC2c3c(OC(C)=O)c(C)c4c(c3C(COC1=O)N1C(O)C3Cc5cc(C)c(OC)c(O)c5C(C21)N3C)OCO4
- pIC50 (second compound 30 pM): 6.97
- pIC50 (second compound 94.9 pM): 7.27
- pIC50 (second compound 0.0003 µM): > 8.02
- pIC50 (second compound 0.000949 µM): > 8.02
- pIC50 (second compound 0.003 µM): > 8.02
- viability, T/C (second compound 30 pM, first compound 0.00949 µM): 84.8%
- viability, T/C (second compound 30 pM, first compound 0.03 µM): 78.4%
- viability, T/C (second compound 30 pM, first compound 0.0949 µM): 53.1%
- viability, T/C (second compound 30 pM, first compound 0.3 µM): 23.3%
- viability, T/C (second compound 30 pM, first compound 0.949 µM): 14.2%
- viability, T/C (second compound 30 pM, first compound 3 µM): 7.89%
- viability, T/C (second compound 94.9 pM, first compound 0.00949 µM): 76.4%
- viability, T/C (second compound 94.9 pM, first compound 0.03 µM): 60.5%
- viability, T/C (second compound 94.9 pM, first compound 0.0949 µM): 40.5%
- viability, T/C (second compound 94.9 pM, first compound 0.3 µM): 19.5%
- viability, T/C (second compound 94.9 pM, first compound 0.949 µM): 11.1%
- viability, T/C (second compound 94.9 pM, first compound 3 µM): 4.34%
- viability, T/C (second compound 0.0003 µM, first compound 0.00949 µM): 11.4%
- viability, T/C (second compound 0.0003 µM, first compound 0.03 µM): 13.4%
- viability, T/C (second compound 0.0003 µM, first compound 0.0949 µM): 10.5%
- viability, T/C (second compound 0.0003 µM, first compound 0.3 µM): 4.16%
- viability, T/C (second compound 0.0003 µM, first compound 0.949 µM): 1.76%
- viability, T/C (second compound 0.0003 µM, first compound 3 µM): 0.21%
- outcome (second compound 0.000949 µM, first compound 0.00949 µM): active
- viability, T/C (second compound 0.000949 µM, first compound 0.03 µM): 1.98%
- outcome (second compound 0.000949 µM, first compound 0.0949 µM): active
- viability, T/C (second compound 0.000949 µM, first compound 0.3 µM): 0.18%
- viability, T/C (second compound 0.000949 µM, first compound 0.949 µM): 0.05%
- viability, T/C (second compound 0.000949 µM, first compound 3 µM): 0.12%
- viability, T/C (second compound 0.003 µM, first compound 0.00949 µM): 0.14%
- viability, T/C (second compound 0.003 µM, first compound 0.03 µM): 0.14%
- viability, T/C (second compound 0.003 µM, first compound 0.0949 µM): 0.17%
- viability, T/C (second compound 0.003 µM, first compound 0.3 µM): 0.17%
- viability, T/C (second compound 0.003 µM, first compound 0.949 µM): 0.14%
- viability, T/C (second compound 0.003 µM, first compound 3 µM): 0.27%
